What all share (assay type): biochemical
Assay [1] deals with T1, catalytic domain of human neutrophilic collagenase (MMP-8) (Homo sapiens, UniProt P22894).
T1 construct: of the catalytic domain of human stromelysin (MMP-3) and neutrophilic collagenase (MMP-8); made in house
Description: Enzyme activity of the catalytic domain of neutrophilic collagenase (MMP-8), fluorogenic substrate. To be noted: catalytic domain prepared as described by Ye et al., fluorescence 328/393 nm. On the procedure: b) Preparation, and determination of the enzyme activity, of the catalytic domain of human stromelysin (MMP-3) and neutrophilic collagenase (MMP-8).
The two enzymes, i.e. stromelysin (MMP-3) and neutrophilic collagenase (MMP-8), were prepared as described by Ye et al. (Biochemistry; 31 (1992) pages 11231–11235). In order to measure the enzyme activity or the inhibitory effect on the enzyme, 10 μl of enzyme solution were incubated, for 15 minutes, with 10 μl of a 3% (v/v) buffered solution of dimethyl sulfoxide which contained the enzyme inhibitor, where appropriate. After 10 μl of a 3% (v/v) aqueous solution of dimethyl sulfoxide which contained 1 mmol of substrate/l had been added, the enzyme reaction was monitored by fluorescence spectroscopy (328 nm (ex)/393 nm(em)).
The enzyme activity is presented as increase in extinction/minute.
The buffer solution contained 0.05% Brij (Sigma, Deisenhofen, Germany) as well as 0.1 mol of tris/HCl/l, 0.1 mol of NaCl/l, 0.01 mol of CaCl2/l and 0.1 mol of piperazine-N,N′-bis[2-ethanesulfonic acid]/l (pH=7.5). The MMP-3 enzyme solution contained 2.3 μg, and the MMP-8 enzyme solution contained 0.6 μg, of one of the enzyme domains/ml prepared as described by Ye et al. The substrate solution contained 1 mmol of the fluorogenic substrate (7-methoxycoumarin-4-yl)acetyl-Pro-Leu-Gly-Leu-3-(2′,4′-dinitrophenyl)-L-2,3-diaminopropionyl-Ala-Arg-NH2/l (Bachem, Heidelberg, Germany).

Assay [2] deals with T2, catalytic domain of human collagenase-3 (MMP-13) (Homo sapiens, UniProt P45452).
T2 construct: enzyme activity of the catalytic domain of human collagenase-3 (MMP-13); purchased INVITEK, Berlin 30 100 803
Description: Enzyme activity of the catalytic domain of human collagenase-3 (MMP-13), fluorogenic substrate. The following applies: APMA-activated proenzyme, fluorescence 328/393 nm. The protocol:
c) Determining the enzyme activity of the catalytic domain of human collagenase-3 (MMP-13).
Activation of the proenzyme:
2 parts by volume of proenzyme were incubated, at 37° C. for 1.5 hours, with 1 part by volume of APMA solution. The APMA solution was prepared from a 10 mmol/l solution of p-aminophenylmercuric acetate in 0.1 mmol/l NaOH by diluting the solution with 3 parts by volume of tris/HCl buffer, pH 7.5 (see below). The pH was adjusted to between 7.0 and 7.5 by adding 1 mmol/l HCl. After the enzyme had been activated, it was diluted with the tris/HCl buffer to a concentration of 1.67 μg/ml.
(§1) In order to measure the enzyme activity, 10 μl of enzyme solution were incubated for 15 minutes with 10 μl of a 3% (v/v) buffered solution of dimethyl sulfoxide (reaction 1). In order to measure the enzyme inhibitor activity, 10 μl of enzyme solution were incubated with 10 μl of a 3% (v/v) buffered solution of dimethyl sulfoxide which contained the enzyme inhibitor (reaction 2).
Both in the case of reaction 1 and in the case of reaction 2, the enzyme reaction was monitored by fluorescence spectroscopy (328 nm (extinction)/393 nm (emission)) after 10 μl of a 3% (v/v) aqueous solution of dimethyl sulfoxide which contained 0.075 mmol of the substrate/1 had been added.
(§2) The enzyme activity was presented as increase in extinction/minute.
The effect of the inhibitor was calculated as a percentage inhibition in accordance with the following formula: % inhibition=100−[(increase in extinction/minute in reaction 2)/(increase in extinction/minute in reaction 1)×100].
(§3) The IC50, that is the concentration of inhibitor which is required for 50% inhibition of the enzyme activity, was determined graphically by plotting the percentage inhibitions at different inhibitor concentrations.
The buffer solution contained 0.05% Brij (Sigma, Deisenhofen, Germany) and also 0.1 mol of tris/HCl/l, 0.1 mol of NaCl/l, 0.01 mol of CaCl2/l (pH=7.5). The enzyme solution contained 1.67 μg of the enzyme domain/ml. The substrate solution contained 0.075 mmol of the fluorogenic substrate (7-methoxycoumarin-4-yl)acetyl-Pro-Leu-Gly-Leu-3-(2′,4′-dinitrophenyl)-L-2,3-diaminopropionyl-Ala-Arg-NH2/1 (Bachem, Heidelberg, Germany).

Assay [3] concerns the target T3, catalytic domain of human gelatinase A (MMP-2) (Homo sapiens, UniProt P08253).
T3 construct: enzyme activity of the catalytic domain of human gelatinase A (MMP-2); purchased INVITEK, Berlin 30 100 602
As to the kind of experiment: Enzyme activity of the catalytic domain of human gelatinase A (MMP-2), fluorogenic substrate. To be noted: APMA-activated proenzyme, fluorescence 328/393 nm. The protocol: d) Determining the enzyme activity of the catalytic domain of human gelatinase A (MMP-2). […] Activation of the proenzyme:
2 parts by volume of proenzyme were incubated, at 37° C. for 0.5 hour, with 1 part by volume of APMA solution. The APMA solution was prepared from a 10 mmol/l solution of p-aminophenylmercuric acetate in 0.1 mmol/l NaOH by diluting it with 3 parts by volume of tris/HCl buffer, pH 7.5 (see below). The pH was adjusted to between 7.0 and 7.5 by adding 1 mmol/l HCl. After the enzyme had been activated, it was diluted with the tris/HCl buffer to a concentration of 0.83 μg/ml.
as §1
Both in the case of reaction 1 and in the case of reaction 2, the enzyme reaction was monitored by fluorescence spectroscopy (328 nm (extinction)/393 nm (emission)) after 10 μl of a 3% (v/v) aqueous solution of dimethyl sulfoxide which contained 0.3 mmol of the substrate/1 had been added.
as §2
The effect of the inhibitor was calculated as percentage inhibition in accordance with the following formula: % inhibition=100−[(increase in extinction/minute in reaction 2)/(increase in extinction/minute in reaction 1)×100].
as §3
The buffer solution contained 0.05% Brij (Sigma, Deisenhofen, Germany) and also 0.1 mol of tris/HCl/l, 0.1 mol of NaCl/l, 0.01 mol of CaCl2/l (pH=7.5). The enzyme solution contained 0.83 μg of the enzyme domain/ml. The substrate solution contained 0.3 mmol of the fluorogenic substrate (7-methoxycoumarin-4-yl)acetyl-Pro-Leu-Gly-Leu-3-(2′,4′-dinitrophenyl)-L-2,3-diaminopropionyl-Ala-Arg-NH2/l (Bachem, Heidelberg, Germany).

Molecules are shown by their SMILES. Where a name gives a salt, the structure may show the parent alone.

IC50 data for 13 molecules are collected here from patent publication US7205315B2, “Bicyclic imino acid derivatives as inhibitors of matrix metalloproteinases” (Sanofi-Aventis Deutschland GmbH, priority 2003, dated 2007).

Usually IC50 stands for the midpoint of a concentration-inhibition curve.

T1 sequence (P22894 100-262 limits assumed): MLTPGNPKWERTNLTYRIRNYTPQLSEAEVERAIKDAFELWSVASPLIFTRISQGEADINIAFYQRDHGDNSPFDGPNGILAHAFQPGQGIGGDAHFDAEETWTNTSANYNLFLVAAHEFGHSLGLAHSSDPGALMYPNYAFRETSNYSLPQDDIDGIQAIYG
T3 sequence (P08253 110-465 limits assumed): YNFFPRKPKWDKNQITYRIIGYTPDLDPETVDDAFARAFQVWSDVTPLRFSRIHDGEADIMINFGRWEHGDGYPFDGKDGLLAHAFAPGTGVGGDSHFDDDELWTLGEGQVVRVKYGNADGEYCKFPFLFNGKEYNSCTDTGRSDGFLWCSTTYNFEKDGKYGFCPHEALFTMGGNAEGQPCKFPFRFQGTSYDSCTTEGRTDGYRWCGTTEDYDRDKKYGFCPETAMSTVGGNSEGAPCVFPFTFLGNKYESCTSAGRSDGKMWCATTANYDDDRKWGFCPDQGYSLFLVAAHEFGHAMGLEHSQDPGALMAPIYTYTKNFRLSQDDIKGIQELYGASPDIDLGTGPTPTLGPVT

Consider `O=C(NO)C1C2CCCCC2CCN1S(=O)(=O)CCc1ccc(-c2ccc(Cl)cc2)cc1` (stereo not drawn) [Example 7, 2-[2-(4′-chlorobiphenyl-4-yl)ethanesulfonyl]decahydroisoquinoline-1-(N-hydroxy)carboxamide], for which the IC50 in assay [1] worked out at 13 nM; in assay [2], 7 nM; in assay [3], 4 nM.
For `N#Cc1ccc(Oc2ccc(S(=O)(=O)N3CCC4CCCCC4C3C(=O)NO)cc2)cc1` (stereo not drawn) [Example 26, 2-[4-(4-cyanophenoxy)benzenesulfonyl]decahydroisoquinoline-1-(N-hydroxy)carboxamide], in that order: 16 nM, 3 nM and 8 nM.
For `O=C(NO)C1C2CCCCC2CCN1S(=O)(=O)c1ccc(-c2ccc(Cl)cc2)cc1` (stereo not drawn) [Example 3, 2-(4′-chlorobiphenyl-4-sulfonyl)decahydroisoquinoline-1-(N-hydroxy)-carboxamide], in that order: 3 nM, 3 nM and 30 nM.
Regarding `O=C(NO)C1C2CCCCC2CCN1S(=O)(=O)c1ccc(Oc2ccc(OC(F)(F)F)cc2)cc1` (stereo not drawn) [Example 23, 2-[4-(4-trifluoromethoxyphenoxy)benzenesulfonyl]decahydroisoquinoline-1-(N-hydroxy)carboxamide], the IC50 in assay [1] was found to be 9 nM; in assay [2], 2.1 nM; in assay [3], 2 nM.
For `O=C(NO)C1C2CCCCC2CCN1S(=O)(=O)c1ccc(Oc2ccccc2)nc1` (stereo not drawn) [Example 5, 2-(6-phenoxypyridine-3-sulfonyl)decahydroisoquinoline-1-(N-hydroxy)-carboxamide trifluoroacetate], in that order: 2.5 nM, 1.8 nM and 2 nM.
In the case of `O=C(NO)[C@@H]1[C@@H]2CCCC[C@@H]2CCN1S(=O)(=O)c1ccc(-c2ccc(Cl)cc2)cc1` (single isomer, unassigned) [Example 15, 2-(4′-chlorobiphenyl-4-sulfonyl)decahydroisoquinoline-1-(N-hydroxy)-carboxamide], the IC50 in assay [1] was 2000 nM; in assay [2], 2300 nM; in assay [3], 2300 nM.
Regarding `O=C(NO)[C@H]1[C@H]2CCCC[C@H]2CCN1S(=O)(=O)c1ccc(Oc2ccc(F)cc2)cc1` [Example 21, 2-[4-(4-fluorophenoxy)benzenesulfonyl]decahydroisoquinoline-1-(N-hydroxy)carboxamide], the results for the IC50 in assay [1], in assay [2] and in assay [3] were 2.3 nM, 1.3 nM and 1.5 nM, respectively.
For `O=C(NO)[C@H]1[C@H]2CCCC[C@H]2CCN1S(=O)(=O)c1ccc(-c2ccc(Cl)cc2)cc1` (single isomer, unassigned) [Example 14, 2-(4′-chlorobiphenyl-4-sulfonyl)decahydroisoquinoline-1-(N-hydroxy)-carboxamide], in that order: 2.2 nM, 2 nM and 2 nM.
For `O=C(NO)C1C2CCCCC2CCN1S(=O)(=O)c1ccc(Oc2ccc(OCC(F)(F)F)cc2)cc1` (stereo not drawn) [Example 13, 2-{4-[4-(2,2,2-trifluoroethoxy)phenoxy]benzenesulfonyl}decahydroisoquinoline-1-(N-hydroxy)carboxamide] the same measures were 4 nM, 2 nM and 2.6 nM.
For `COc1ccc(Oc2ccc(S(=O)(=O)N3CCC4CCCCC4C3C(=O)NO)cc2)cc1` (stereo not drawn) [Example 11, 2-[4-(4-methoxyphenoxy)benzenesulfonyl]decahydroisoquinoline-1-(N-hydroxy)carboxamide], in that order: 2.5 nM, 1.5 nM and 2 nM.
Consider `O=C(NO)C1C2CCCCC2CCN1S(=O)(=O)c1ccc(Oc2ccc(F)cc2)cc1` (stereo not drawn) [Example 20, 2-[4-(4-fluorophenoxy)benzenesulfonyl]decahydroisoquinoline-1-(N-hydroxy)carboxamide], for which the IC50 turned out to be 3 nM in assay [1], 2 nM in assay [2] and 2 nM in assay [3].
`O=C(NO)C1C2CCCCC2CCN1S(=O)(=O)c1ccc(-c2ccc(OC(F)(F)F)cc2)cc1` (stereo not drawn) [Example 19, 2-(4′-trifluoromethoxybiphenyl-4-sulfonyl)decahydroisoquinoline-1-(N-hydroxy)carboxamide]: the IC50 was found to be 10 nM in assay [1], 3 nM in assay [2] and 3 nM in assay [3].
As for `O=C(NO)C1C2CCCCC2CCN1S(=O)(=O)c1ccc(Oc2ccncc2)cc1` (stereo not drawn) [Example 9, 2-[4-(pyridin-4-yloxy)benzenesulfonyl]decahydroisoquinoline-1-(N-hydroxy)carboxamide trifluoroacetate], the IC50 in assay [1] stood at 22 nM; in assay [2], 21 nM; in assay [3], 20 nM.
